Experimental data published in PubChem BioAssay AID1918940 (Molecular Pharmacology Branch, DTP, NCI, 2023).

System: NCI-H211 complex spheroid viability
Test: Anticancer human tumor NCI-H211 cell line growth inhibition [LSD1];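 also: luminescent viability read after seven days of drug exposure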;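 as to viability, T/C: 100% = DMSO vehicle control viability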
Conditions: for IC50: curve of first compound; for viability, T/C: stronger effect = lower value
Procedure, shortened: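 Drug combinations with the LSD1 inhibitor iadademstat tested on tumor cells co-cultured as spheroids with endothelial cells and mesenchymal stem cells. Concentrations descended in half-log increments from clinical Cmax or 10 microM.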

CCc1c2c(nc3ccc(O)cc13)-c1cc3c(c(=O)n1C2)COC(=O)[C@]3(O)CC + NC1CCC(NC2CC2c2ccccc2)CC1
IC50 (second compound 0.1 µM): < 0.949 nM | IC50 (second compound 0.316 µM): < 0.949 nM | IC50 (second compound 1 µM): < 0.949 nM | IC50 (second compound 3.16 µM): < 0.949 nM | IC50 (second compound 10 µM): < 0.949 nM | viability, T/C (second compound 0.1 µM, first compound 0.000949 µM): 1.98% | viability, T/C (second compound 0.1 µM, first compound 0.003 µM): 3.23% | viability, T/C (second compound 0.1 µM, first compound 0.00949 µM): 0.6% | viability, T/C (second compound 0.1 µM, first compound 0.03 µM): 0.92% | viability, T/C (second compound 0.1 µM, first compound 0.0949 µM): 0.04% | viability, T/C (second compound 0.1 µM, first compound 0.3 µM): 0.14% | viability, T/C (second compound 0.316 µM, first compound 0.000949 µM): 1.86% | viability, T/C (second compound 0.316 µM, first compound 0.003 µM): 0.71% | viability, T/C (second compound 0.316 µM, first compound 0.00949 µM): 0.57% | viability, T/C (second compound 0.316 µM, first compound 0.03 µM): 0.69% | viability, T/C (second compound 0.316 µM, first compound 0.0949 µM): 0.03% | viability, T/C (second compound 0.316 µM, first compound 0.3 µM): 0.27% | viability, T/C (second compound 1 µM, first compound 0.000949 µM): 2.45% | viability, T/C (second compound 1 µM, first compound 0.003 µM): 1.08% | viability, T/C (second compound 1 µM, first compound 0.00949 µM): 0.51% | viability, T/C (second compound 1 µM, first compound 0.03 µM): 0.73% | viability, T/C (second compound 1 µM, first compound 0.0949 µM): 0.06% | viability, T/C (second compound 1 µM, first compound 0.3 µM): 0.61% | viability, T/C (second compound 3.16 µM, first compound 0.000949 µM): 0.94% | viability, T/C (second compound 3.16 µM, first compound 0.003 µM): 0.56% | viability, T/C (second compound 3.16 µM, first compound 0.00949 µM): 0.41% | viability, T/C (second compound 3.16 µM, first compound 0.03 µM): 0.58% | viability, T/C (second compound 3.16 µM, first compound 0.0949 µM): 0.5% | viability, T/C (second compound 3.16 µM, first compound 0.3 µM): 0.13% | viability, T/C (second compound 10 µM, first compound 0.000949 µM): 0.65% | viability, T/C (second compound 10 µM, first compound 0.003 µM): 0.19% | viability, T/C (second compound 10 µM, first compound 0.00949 µM): 0.2% | viability, T/C (second compound 10 µM, first compound 0.03 µM): 0.27% | viability, T/C (second compound 10 µM, first compound 0.0949 µM): 0.13% | viability, T/C (second compound 10 µM, first compound 0.3 µM): 0.19%
